Source: patent US20200181104A1, “SSAO INHIBITORS AND USES THEREOF” (METACRINE, INC., priority 2018, published 2020)
Structures can show the parent of a compound that is named as a salt.

molecular target: T1, Recombinant Human SSAO/VAP-1/AOC3 (Homo sapiens, UniProt Q16853); assay: Human Semicarbazide-Sensitive Amine Oxidase (SSAO) Assay; assay type: biochemical; conditions: recombinant enzyme, 30 minutes preincubation at 37° C., benzylamine substrate, Amplex Ultra Red/HRP fluorescence
T1 construct: purchased R&D systems 3957-AO
T1 sequence (Q16853 1-763): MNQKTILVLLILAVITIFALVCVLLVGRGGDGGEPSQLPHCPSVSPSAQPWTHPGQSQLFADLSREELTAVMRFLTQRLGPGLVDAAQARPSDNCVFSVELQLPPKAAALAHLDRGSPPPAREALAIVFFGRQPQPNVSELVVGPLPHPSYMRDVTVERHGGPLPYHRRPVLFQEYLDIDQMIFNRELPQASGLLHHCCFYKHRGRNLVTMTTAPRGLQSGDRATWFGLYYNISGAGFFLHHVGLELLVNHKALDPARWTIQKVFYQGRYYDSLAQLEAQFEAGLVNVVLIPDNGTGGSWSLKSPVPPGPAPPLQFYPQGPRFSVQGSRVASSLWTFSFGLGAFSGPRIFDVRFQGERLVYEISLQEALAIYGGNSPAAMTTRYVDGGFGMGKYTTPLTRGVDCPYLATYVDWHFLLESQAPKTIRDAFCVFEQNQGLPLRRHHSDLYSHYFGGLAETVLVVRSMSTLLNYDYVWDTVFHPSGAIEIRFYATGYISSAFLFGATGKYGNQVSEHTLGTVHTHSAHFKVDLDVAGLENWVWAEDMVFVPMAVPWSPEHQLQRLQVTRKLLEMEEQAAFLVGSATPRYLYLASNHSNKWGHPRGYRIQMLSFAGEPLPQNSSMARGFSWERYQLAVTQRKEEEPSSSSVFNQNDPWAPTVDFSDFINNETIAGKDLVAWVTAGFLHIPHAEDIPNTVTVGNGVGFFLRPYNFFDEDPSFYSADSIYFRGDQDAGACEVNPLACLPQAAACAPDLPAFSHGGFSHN
Outline: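 Recombinant human SSAO/VAP-1 (2.5 μg/ml working stock in 50 mM HEPES) preincubated with compound 30 min at 37 °C over a 6-10 point CRC. Benzylamine substrate starts the reaction. H2O2 read kinetically over 30-120 min via Amplex Ultra Red/HRP fluorescence (ex 544/em 590 nm) to derive IC50.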

Row | Compound | IC50 [nM]
1 | COC1(CNC(=O)C23CCC(c4ccc(OC/C(=C/F)CN)cc4)(CC2)CC3)CCOCC1 [Compound 2.98, (E)-4-(4-((2-(aminomethyl)-3-fluoroallyl)oxy)phenyl)-N-((4-methoxytetrahydro-2H-pyran-4-yl)methyl)bicyclo[2.2.2]octane-1-carboxamide] | ≤ 10
2 | NC/C(=C\F)COc1ccc(C23CCC(C(=O)N4CC(O)(C5CC5)C4)(CC2)CC3)cc1 [Compound 2.99, (E)-(4-(4-((2-(aminomethyl)-3-fluoroallyl)oxy)phenyl)bicyclo [2.2.2]octan-1-yl)(3-cyclopropyl-3-hydroxyazetidin-1-yl)methanone] | ≤ 10
3 | NC/C(=C\F)COc1ccc(C23CCC(C(=O)NCC4(O)CCCC4)(CC2)CC3)cc1 [Compound 2.100, (E)-4-(4-((2-(aminomethyl)-3-fluoroallyl)oxy)phenyl)-N-((1-hydroxycyclopentyl)methyl) bicyclo[2.2.2]octane-1-carboxamide] | ≤ 10
4 | NC/C(=C\F)COc1ccc(C23CCC(C(=O)NCC4(O)CCCCC4)(CC2)CC3)cc1 [Compound 2.101, (E)-4-(4-((2-(aminomethyl)-3-fluoroallyl)oxy)phenyl)-N-((1-hydroxycyclohexyl)methyl) bicyclo[2.2.2]octane-1-carboxamide] | ≤ 10
5 | COC1(CNC(=O)C23CCC(c4ccc(OC/C(=C/F)CN)cc4)(CC2)CC3)CCCCC1 [Compound 2.102, (E)-4-(4-((2-(aminomethyl)-3-fluoroallyl)oxy)phenyl)-N-((1-methoxycyclohexyl)methyl) bicyclo[2.2.2]octane-1-carboxamide] | 10 to 100
6 | CC1(C)CC(NC(=O)C23CCC(c4ccc(OC/C(=C/F)CN)cc4)(CC2)CC3)CC(C)(C)O1 [Compound 2.105, (E)-4-(4-((2-(aminomethyl)-3-fluoroallyl)oxy)phenyl)-N-(2,2,6,6-tetramethyltetrahydro-2H-pyran-4-yl)bicyclo[2.2.2]octane-1-carboxamide] | ≤ 10
7 | NC/C(=C\F)COc1ccc(C23CCC(C(=O)NC4CCC5(CC4)COC5)(CC2)CC3)cc1 [Compound 2.106, (E)-4-(4-((2-(aminomethyl)-3-fluoroallyl)oxy)phenyl)-N-(2-oxaspiro[3.5]nonan-7-yl)bicyclo[2.2.2]octane-1-carboxamide] | ≤ 10
8 | NC/C(=C\F)COc1ccc(C23CCC(C(=O)NCCOC4CCOCC4)(CC2)CC3)cc1 [Compound 2.107] | ≤ 10
9 | CC(C)(NC(=O)C12CCC(c3ccc(OC/C(=C/F)CN)cc3)(CC1)CC2)C1CCOCC1 [Compound 2.108, (E)-4-(4-((2-(aminomethyl)-3-fluoroallyl)oxy)phenyl)-N-(2-(tetrahydro-2H-pyran-4-yl)propan-2-yl)bicyclo[2.2.2]octane-1-carboxamide] | ≤ 10
10 | CO[C@H]1CCCN(C(=O)C23CCC(c4ccc(OC/C(=C/F)CN)cc4)(CC2)CC3)C1 [Compound 2.110, (S,E)-(4-(4-((2-(aminomethyl)-3-fluoroallyl)oxy)phenyl)bicyclo [2.2.2]octan-1-yl)(3-methoxypiperidin-1-yl)methanone] | ≤ 10
11 | CO[C@@H]1CCCN(C(=O)C23CCC(c4ccc(OC/C(=C/F)CN)cc4)(CC2)CC3)C1 [Compound 2.111, (R,E)-(4-(4-((2-(aminomethyl)-3-fluoroallyl)oxy)phenyl)bicyclo [2.2.2]octan-1-yl)(3-methoxypiperidin-1-yl)methanone] | ≤ 10
12 | NC/C(=C\F)COc1ccc(C23CCC(C(=O)NC4CCN(CC(F)(F)F)CC4)(CC2)CC3)cc1 [Compound 2.112, (E)-4-(4-((2-(aminomethyl)-3-fluoroallyl)oxy)phenyl)-N-(1-(2,2,2-trifluoroethyl)piperidin-4-yl)bicyclo[2.2.2]octane-1-carboxamide] | ≤ 10
13 | NC/C(=C\F)COc1ccc(C23CCC(C(=O)NC4CC5(CCOCC5)C4)(CC2)CC3)cc1 [Compound 2.114, (E)-4-(4-((2-(aminomethyl)-3-fluoroallyl)oxy)phenyl)-N-(7-oxaspiro[3.5]nonan-2-yl)bicyclo[2.2.2]octane-1-carboxamide] | ≤ 10
14 | CO[C@H]1CCC[C@@H](NC(=O)C23CCC(c4ccc(OC/C(=C/F)CN)cc4)(CC2)CC3)C1 [Compound 2.116, 4-(4-(((E)-2-(aminomethyl)-3-fluoroallyl)oxy)phenyl)-N-((1R,3S)-3-methoxycyclohexyl)bicyclo [2.2.2]octane-1-carboxamide] | ≤ 10
15 | NC/C(=C\F)COc1ccc(C23CCC(C(=O)NC4CCN(c5ccccn5)CC4)(CC2)CC3)cc1 [Compound 2.117, (E)-4-(4-((2-(aminomethyl)-3-fluoroallyl)oxy)phenyl)-N-(1-(pyridin-2-yl)piperidin-4-yl)bicyclo[2.2.2]octane-1-carboxamide] | ≤ 10
16 | NC/C(=C\F)COc1ccc(C23CCC(C(=O)NCCOC4CCC4)(CC2)CC3)cc1 [Compound 2.120, (E)-4-(4-((2-(aminomethyl)-3-fluoroallyl)oxy)phenyl)-N-(2-cyclobutoxyethyl)bicyclo [2.2.2]octane-1-carboxamide] | ≤ 10
17 | CO[C@H]1CCN(C(=O)C23CCC(c4ccc(OC/C(=C/F)CN)cc4)(CC2)CC3)C1 [Compound 2.121, (S,E)-(4-(4-((2-(aminomethyl)-3-fluoroallyl)oxy)phenyl)bicyclo [2.2.2]octan-1-yl)(3-methoxypyrrolidin-1-yl)methanone] | ≤ 10

The remaining lines, values ahead:

Row | IC50 [nM] | Compound
18 | ≤ 10 | CO[C@H]1C[C@@H](NC(=O)C23CCC(c4ccc(OC/C(=C/F)CN)cc4)(CC2)CC3)C1 [Compound 2.95, 4-(4-(((E)-2-(Aminomethyl)-3-fluoroallyl)oxy)phenyl)-N-(cis-3-methoxycyclobutyl)bicyclo[2.2.2]octane-1-carboxamide Hydrochloride]
19 | ≤ 10 | NC/C(=C\F)COc1ccc(C23CCC(C(=O)NCC4(O)CCC4)(CC2)CC3)cc1 [Compound 2.96, (E)-4-(4-((2-(aminomethyl)-3-fluoroallyl)oxy)phenyl)-N-((1-hydroxycyclobutyl)methyl) bicyclo[2.2.2]octane-1-carboxamide]
20 | ≤ 10 | COC(C)(C)CNC(=O)C12CCC(c3ccc(OC/C(=C/F)CN)cc3)(CC1)CC2 [Compound 2.97, (E)-4-(4-((2-(aminomethyl)-3-fluoroallyl)oxy)phenyl)-N-(2-methoxy-2-methylpropyl)bicyclo[2.2.2] octane-1-carboxamide]
21 | ≤ 10 | CC(C)(C#N)CNC(=O)C12CCC(c3ccc(OC/C(=C/F)CN)cc3)(CC1)CC2 [Compound 2.103, (E)-4-(4-((2-(aminomethyl)-3-fluoroallyl)oxy)phenyl)-N-(2-cyano-2-methylpropyl)bicyclo[2.2.2] octane-1-carboxamide]
22 | ≤ 10 | NC/C(=C\F)COc1ccc(C23CCC(C(=O)NCC(F)(F)F)(CC2)CC3)cc1 [Compound 2.109, (E)-4-(4-((2-(aminomethyl)-3-fluoroallyl)oxy)phenyl)-N-(2,2,2-trifluoroethyl)bicyclo [2.2.2]octane-1-carboxamide]
23 | ≤ 10 | NC/C(=C\F)COc1ccc(C23CCC(C(=O)NCC(F)F)(CC2)CC3)cc1 [Compound 2.113, (E)-4-(4-((2-(aminomethyl)-3-fluoroallyl)oxy)phenyl)-N-(2,2-difluoroethyl)bicyclo[2.2.2] octane-1-carboxamide]
24 | ≤ 10 | COc1ccc(CNC(=O)C23CCC(c4ccc(OC/C(=C/F)CN)cc4)(CC2)CC3)cc1 [Compound 2.118, (E)-4-(4-((2-(aminomethyl)-3-fluoroallyl)oxy)phenyl)-N-(4-methoxybenzyl)bicyclo[2.2.2] octane-1-carboxamide]
25 | ≤ 10 | COc1cccc(CCNC(=O)C23CCC(c4ccc(OC/C(=C/F)CN)cc4)(CC2)CC3)c1 [Compound 2.119, (E)-4-(4-((2-(aminomethyl)-3-fluoroallyl)oxy)phenyl)-N-(3-methoxyphenethyl)bicyclo [2.2.2]octane-1-carboxamide]
26 | ≤ 10 | NC/C(=C\F)COc1ccc(C23CCC(C(=O)Nc4ccncn4)(CC2)CC3)cc1 [Compound 2.122, (E)-4-(4-((2-(aminomethyl)-3-fluoroallyl)oxy)phenyl)-N-(pyrimidin-4-yl)bicyclo[2.2.2]octane-1-carboxamide]
27 | ≤ 10 | CO[C@H](C)CNC(=O)C12CCC(c3ccc(OC/C(=C/F)CN)cc3)(CC1)CC2 [Compound 2.123, (R,E)-4-(4-((2-(aminomethyl)-3-3-fluoroallyl)oxy)phenyl)-N-(2-methoxypropyl)bicyclo[2.2.2] octane-1-carboxamide]
28 | ≤ 10 | COC[C@H]1C[C@@H](NC(=O)C23CCC(c4ccc(OC/C(=C/F)CN)cc4)(CC2)CC3)C1 [Compound 2.124, 4-(4-(((E)-2-(aminomethyl)-3-fluoroallyl)oxy)phenyl)-N-((1s,3s)-3-(methoxymethyl)cyclobutyl) bicyclo[2.2.2]octane-1-carboxamide]
